One test concerns Trypanosoma cruzi. Put plainly: Antiparasitic activity against Trypanosoma cruzi amastigotes infected in gamma-irradiated vero cells assessed as growth inhibition by fluorescence assay. Format: functional, organism-based. The note with it: light or radiation study.
For test [1], the system named is Toxoplasma gondii. Description: Antiparasitic activity against Toxoplasma gondii tachyzoite expressing red fluorescence protein assessed as growth inhibition by fluorescence plate reader. The class given is functional, organism-based.
Test [2] has as its target T1, Farnesyl diphosphate synthase (Trypanosoma cruzi, UniProt Q8WS26).
T1 sequence (Q8WS26 whole entry): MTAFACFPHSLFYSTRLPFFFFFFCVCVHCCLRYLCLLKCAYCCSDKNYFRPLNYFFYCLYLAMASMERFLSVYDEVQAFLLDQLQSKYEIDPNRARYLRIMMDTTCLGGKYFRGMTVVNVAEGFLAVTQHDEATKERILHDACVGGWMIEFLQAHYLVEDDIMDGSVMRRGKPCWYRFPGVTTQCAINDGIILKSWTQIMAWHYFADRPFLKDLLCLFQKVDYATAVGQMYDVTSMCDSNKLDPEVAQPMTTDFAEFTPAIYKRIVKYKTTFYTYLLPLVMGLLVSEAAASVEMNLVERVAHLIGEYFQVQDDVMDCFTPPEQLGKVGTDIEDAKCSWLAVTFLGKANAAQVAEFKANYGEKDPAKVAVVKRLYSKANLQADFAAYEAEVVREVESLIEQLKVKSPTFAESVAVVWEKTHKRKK
Put plainly: Inhibition of Trypanosoma cruzi FPPS after 30 mins using [14C]IPP by scintillation counting.

Test [3] deals with T2, Farnesyl diphosphate synthase (Toxoplasma gondii, UniProt Q197X6).
T2 sequence (Q197X6 whole entry): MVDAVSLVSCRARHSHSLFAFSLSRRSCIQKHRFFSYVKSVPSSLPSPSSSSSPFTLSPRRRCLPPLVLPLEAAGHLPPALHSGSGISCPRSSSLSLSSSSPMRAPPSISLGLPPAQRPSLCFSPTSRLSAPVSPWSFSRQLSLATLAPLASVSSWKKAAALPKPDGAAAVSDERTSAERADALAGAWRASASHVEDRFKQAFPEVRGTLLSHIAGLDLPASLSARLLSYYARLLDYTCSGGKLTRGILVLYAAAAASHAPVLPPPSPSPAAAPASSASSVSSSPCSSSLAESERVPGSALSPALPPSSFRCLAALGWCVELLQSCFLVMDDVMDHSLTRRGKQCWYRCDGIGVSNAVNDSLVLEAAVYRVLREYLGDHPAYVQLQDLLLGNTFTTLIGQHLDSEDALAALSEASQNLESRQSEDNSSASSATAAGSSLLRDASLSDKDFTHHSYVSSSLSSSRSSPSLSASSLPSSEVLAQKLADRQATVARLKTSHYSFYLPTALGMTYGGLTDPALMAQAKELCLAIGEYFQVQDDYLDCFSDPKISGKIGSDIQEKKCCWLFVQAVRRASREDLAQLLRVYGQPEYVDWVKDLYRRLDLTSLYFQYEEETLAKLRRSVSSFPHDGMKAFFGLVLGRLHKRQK
Description: Inhibition of Toxoplasma gondii FPPS after 30 mins using [14C]IPP by scintillation counting.

Test [4] relates to Toxoplasma gondii. Put plainly: Antiparasitic activity against Toxoplasma gondii assessed as growth inhibition. Format: functional, organism-based.

Structures are written as SMILES.

Take `O=P(O)(O)C(CNCc1ccccc1)P(=O)(O)O`: the IC50 (as a rule, the concentration needed to halve the response being measured) in the test with Trypanosoma cruzi was above 10 µM; in the test on Toxoplasma gondii [1], above 10 µM; in test [2], above 1 µM.

Take `CCCCCCCCCNCC(P(=O)(O)O)P(=O)(O)O`: the IC50 in test [3] was 0.44 µM; in the test with Trypanosoma cruzi, above 10 µM; in the test on Toxoplasma gondii [1] it was above 10 µM; in test [2] it was 0.43 µM.

As for `CCCCCCCCCCNCC(P(=O)(O)O)P(=O)(O)O`, the IC50 is 0.068 µM in test [3], above 10 µM with Trypanosoma cruzi, above 10 µM with Toxoplasma gondii [1] and above 1 µM in test [2].

In the case of `CCCCCCCCCCCNCC(P(=O)(O)O)P(=O)(O)O`, the IC50 in test [3] was 0.868 µM; in the test on Trypanosoma cruzi, 5.13 µM; in the test with Toxoplasma gondii [1], above 10 µM; in test [2], 0.856 µM.

Turning to `CCCCCCCCCCCCNCC(P(=O)(O)O)P(=O)(O)O`, the half-inhibitory concentration (IC50) turned out to be 0.093 µM in test [3], 0.67 µM in the test with Trypanosoma cruzi, 6.23 µM in the test on Toxoplasma gondii [1] and 0.811 µM in test [2].

In the case of `CCCCCCCCCCCCCCNCC(P(=O)(O)O)P(=O)(O)O`, the IC50 was 0.292 µM in test [3], above 10 µM in the test with Trypanosoma cruzi, 11.3 µM in the test with Toxoplasma gondii [1] and above 1 µM in test [2].

`CCCCCCCCCCCCCCCCNCC(P(=O)(O)O)P(=O)(O)O`: the IC50 with Trypanosoma cruzi is 2.19 µM; with Toxoplasma gondii [1], 4.13 µM.

For `CCCCCCCCCCCCCCCCCCNCC(P(=O)(O)O)P(=O)(O)O`, the half-inhibitory concentration (IC50) in the test on Trypanosoma cruzi is above 10 µM; in the test with Toxoplasma gondii [1], 5.29 µM.

As to `CCCCCCNCC(P(=O)(O)O)P(=O)(O)O`, the IC50 was found to be 9.37 µM in the test with Toxoplasma gondii [4] and 0.84 µM with Trypanosoma cruzi.

On to `O=C(Cn1ccnc1[N+](=O)[O-])NCc1ccccc1` [BENZNIDAZOLE], for which, in the test on Trypanosoma cruzi, the 50% inhibitory concentration (IC50) was 2.77 µM.

(Values after ChEMBL document CHEMBL1765007, “Synthesis and biological evaluation of new 2-alkylaminoethyl-1,1-bisphosphonic acids against Trypanosoma cruzi and Toxoplasma gondii targeting farnesyl diphosphate synthase” (Bioorg Med Chem, 2011).)
